# Reference: patent publication US5219870A, “Omeprazole compositions designed for administration in rectum” (priority 1990, dated 1993)
# “And” between values parts separate entries of the source, which are not always exact repeats. Equal values may be shown once. Read-outs that look alike come from different tables or passages of the source.
# Columns and labels:
# [1] = Animal Experiment: serum concentration and bioavailability of OMP in rabbits (I.V., oral, rectum); format: in vivo, albino rabbits; settings: 10 mg/kg; for bioavailability: BA (bioavailability)
# Description: Using the same method as in Reference 1, one composition using water-Soluble base was manufactured by the following formula; 20 mg OMP. 10 mg arginine and 970 mg PEG 4000, and another composition using lipid-soluble base was manufactured by the following formula; 20 mg OMP, 10 mg arginine and 970 mg Witepsol H-15.
# Object: 36 male healthy albino rabbits weighing 1.5-2.3 kg.
# Method: before fasting, feed and water were freely provided for eating and rabbits were confined to a wire-box while giving them feed in a constant condition for 4 days. After that, their fasting was made for 48 hours (during the fasting, the rabbits could freely drink 10% dextrose solution.)
# For comparison test, 4 mg/ml I.V. solution was manufactured in advance by mixing 400 mg OMP, 20 ml polyethylene glycol 4000, and 80 ml buffer solution of 0.1 mol sodium bicarbonate. 5 ml solution per rabbit was administered to its ear's vein.
# Then, through the esophagus of rabbit, Levine tube in diameter of 5 mm was inserted by 30 cm for administering oral OMP capsules wrapped in paraffin film. To reduce friction, vaseline was applied around the surface of the tube and through a syringe connected to the opposite end of the tube, 30 ml water was injected and, by the water pressure, paraffin film was broken to administer the capsule into intestine.
# As the feces of the rabbit were not completely removable even in 48-hour fasting, Levine tube having a thickness of 5 mm was used to thrust feces up to the upper part of rectum by 15 cm for the separate of administration of said two kinds of compositions. Then, inserted into the anus, was a cotton wrapped in vinyl tape having a length of 2 cm, fixed it with a clip so as to prevent any leaking of drug solution.
# By using xylene, the venous blood vessel of rabbit's ear was extended to collect some venous blood with a heparinized 3 cc syringe. Said syringe was already treated by soaking its wall with 1000 I.U. heparin. Then, 3 cc of said collected blood sample (10,000 rpm, 10 secs) was centrigued to obtain 1 ml plasma.
# Add 1 ml of said plasma sample to […] intra-standard solution, 3 ml dichloromethane, 3 ml hexaine and 2 ml of 0.1 mol sodium bicarbonate buffer solution. Then, after agitation for 30 secs, centrifuge this mixture in 2000 rpm for 5 mins to separate into organic layer (upper layer) and plasma layer (lower layer).
# Put the centrifuged test tube into ice-contained methanol to freeze the plasma layer. Thereafter, take 5 ml organic solvent from the said solution and, under reduced pressure, evaporate the organic solvent by nitrogen gas. Then add 300 μl mobile phase into the residue and after agitation for 30 secs again, centrifuge the mixture in 2000 rpm for 2 mins and conduct the assay by the HPLC analysis (injected 50 μl) through the comparison of height ratio with standard solution.
# Cmax is a peak serum concentration;
# AUC is an area under the curve describing serum concentration-time; and […]
# [2] = cited from earlier work
# [3] = OMP Stability Based Upon Kinds of Stabilizer (colour change under severe condition); format: physicochemical; settings: Reference 2 result in words
# From the text: As shown in the following table 2, PEG 4000 and Witepsol H-15 were used as bases for the manufacture of said composition; as a basic amino acid, arginine was used. The stability of said manufactured compositions was observed under a severe condition. As a diffusing medium, micro crystalline cellulose (brandname: Avicel) was used, while using sodium laurylsulfate as a releasing agent.
# [4] = OMP Stability Based Upon Kinds of Base (colour change at room temperature); settings: Reference 1 result in words
# [5] = rabbit, in vivo, po, serum concentration
compound,measurement,setting,value
"COc1ccc2[nH]c([S+]([O-])Cc3ncc(C)c(OC)c3C)nc2c1 (centres unmarked) [OMP, Omeprazole]",serum concentration,"[1]; I.V., 20 mg OMP per 2 kg, 1 min, individual animals",110.0 µg/mL and 100.0 µg/mL and 91.5 µg/mL and 99.0 µg/mL
same,serum concentration,"[1]; I.V., 20 mg OMP per 2 kg, 5 min, individual animals",47.8 µg/mL and 63.3 µg/mL and 58.7 µg/mL and 56.5 µg/mL
same,serum concentration,"[1]; I.V., 20 mg OMP per 2 kg, 15 min, individual animals",23.8 µg/mL and 36.8 µg/mL and 24.5 µg/mL
same,serum concentration,"[1]; I.V., 20 mg OMP per 2 kg, 30 min, individual animals",21.0 µg/mL and 16.7 µg/mL and 16.2 µg/mL
same,serum concentration,"[1]; I.V., 20 mg OMP per 2 kg, 60 min, individual animals",9.1 µg/mL and 11.7 µg/mL and 6.5 µg/mL
same,serum concentration,"[1]; I.V., 20 mg OMP per 2 kg, 120 min, individual animals",4.6 μg/ml and 4.2 μg/ml and 4.4 μg/ml (2×)
same,serum concentration,"[1]; I.V., 20 mg OMP per 2 kg, 180 min, individual animals",2.2 µg/mL and 2.1 µg/mL and 2.0 µg/mL
same,serum concentration,"[1]; oral, 20 mg OMP per 2 kg, 1 hr, individual animals, 60 min",0.300 µg/mL and 0.492 µg/mL and 0.270 µg/mL and 0.295 µg/mL
same,serum concentration,"[1]; oral, 20 mg OMP per 2 kg, 4 hr, individual animals, 240 min",0.375 µg/mL and 0.376 µg/mL
same,serum concentration,"[1]; oral, 20 mg OMP per 2 kg, 5 hr, individual animals, 300 min",0.432 µg/mL
same,serum concentration,"[1]; oral, 20 mg OMP per 2 kg, 7 hr, individual animals, 420 min",0.450 µg/mL and 0.409 µg/mL and 0.506 µg/mL and 0.400 µg/mL
same,serum concentration,"[1]; oral, 20 mg OMP per 2 kg, 9 hr, individual animals, 540 min",0.360 µg/mL and 0.373 µg/mL and 0.365 µg/mL
same,serum concentration,"[1]; oral, 20 mg OMP per 2 kg, 11 hr, individual animals, 660 min",0.038 µg/mL and 0.070 µg/mL and 0.171 µg/mL and 0.176 µg/mL and 0.053 µg/mL
same,Tmax,"[1]; oral, 20 mg OMP per 2 kg, individual animals",5 h
same,AUC,"[1]; rabbit, in vivo, iv",33200 ng·h/mL
same,AUC,"[1]; rabbit, in vivo, iv, average",35200 ng·h/mL
same,concentration at 0.25 h,"[1]; rabbit, in vivo, iv, serum concentration",16400 ng/mL
same,serum concentration,"[1]; rabbit, in vivo, po, 4 h",0.531 µg/mL
same,AUC,"[1]; rabbit, in vivo, po",6070 ng·h/mL
same,AUC,"[1]; rabbit, in vivo, po, average",5980 ng·h/mL
same,bioavailability,"[1]; rabbit, in vivo, po",17.2%
same,bioavailability,"[1]; rabbit, in vivo, po, average",17%
same,Cmax,"[1]; rabbit, in vivo, po",591 ng/mL
same,Cmax,"[1]; rabbit, in vivo, po, average",598 ng/mL
same,concentration at 4 h,[1]; [5],591 ng/mL
same,concentration at 5 h,[1]; [5],527 ng/mL
same,concentration at 9 h,[1]; [5],356 ng/mL
same,concentration at 1 min,"[1]; rabbit, serum, iv, I.V., 20 mg OMP per 2 kg, 1 min, average, read-out: serum concentration, average",101000 ng/mL
same,concentration at 1 min,"[1]; rabbit, serum, iv, I.V., 20 mg OMP per 2 kg, 1 min, individual animals, read-out: serum concentration",104000 ng/mL
same,concentration at 5 min,"[1]; rabbit, serum, iv, I.V., 20 mg OMP per 2 kg, 5 min, average, read-out: serum concentration, average",54400 ng/mL
same,concentration at 5 min,"[1]; rabbit, serum, iv, I.V., 20 mg OMP per 2 kg, 5 min, individual animals, read-out: serum concentration",45900 ng/mL
same,concentration at 0.25 h,"[1]; rabbit, serum, iv, I.V., 20 mg OMP per 2 kg, 15 min, average, read-out: serum concentration, average",25600 ng/mL
same,concentration at 0.25 h,"[1]; rabbit, serum, iv, I.V., 20 mg OMP per 2 kg, 15 min, individual animals, read-out: serum concentration",26400 ng/mL
same,concentration at 0.5 h,"[1]; rabbit, serum, iv, I.V., 20 mg OMP per 2 kg, 30 min, average, read-out: serum concentration, average",16700 ng/mL
same,concentration at 0.5 h,"[1]; rabbit, serum, iv, I.V., 20 mg OMP per 2 kg, 30 min, individual animals, read-out: serum concentration",12800 ng/mL
same,concentration at 1 h,"[1]; rabbit, serum, iv, I.V., 20 mg OMP per 2 kg, 60 min, average, read-out: serum concentration, average",8800 ng/mL
same,concentration at 1 h,"[1]; rabbit, serum, iv, I.V., 20 mg OMP per 2 kg, 60 min, individual animals, read-out: serum concentration",7800 ng/mL
same,concentration at 2 h,"[1]; rabbit, serum, iv, I.V., 20 mg OMP per 2 kg, 120 min, average, read-out: serum concentration, average",4700 ng/mL
same,concentration at 2 h,"[1]; rabbit, serum, iv, I.V., 20 mg OMP per 2 kg, 120 min, individual animals, read-out: serum concentration",5800 ng/mL
same,concentration at 3 h,"[1]; rabbit, serum, iv, I.V., 20 mg OMP per 2 kg, 180 min, average, read-out: serum concentration, average",2100 ng/mL
same,concentration at 3 h,"[1]; rabbit, serum, iv, I.V., 20 mg OMP per 2 kg, 180 min, individual animals, read-out: serum concentration",2000 ng/mL
same,concentration at 11 h,"[1]; rabbit, serum, po, 20 mg OMP per 2 kg, 11 hr, average",102 ng/mL
same,concentration at 1 h,"[1]; rabbit, serum, po, oral, 20 mg OMP per 2 kg, 1 hr, average, read-out: serum concentration, average",330 ng/mL
same,concentration at 1 h,"[1]; rabbit, serum, po, oral, 20 mg OMP per 2 kg, 1 hr, individual animals, read-out: serum concentration",293 ng/mL
same,concentration at 2 h,"[1]; rabbit, serum, po, oral, 20 mg OMP per 2 kg, 2 hr, average, read-out: serum concentration, average",455 ng/mL
same,concentration at 2 h,"[1]; rabbit, serum, po, oral, 20 mg OMP per 2 kg, 2 hr, individual animals, read-out: serum concentration",369 ng/mL
same,concentration at 3 h,"[1]; rabbit, serum, po, oral, 20 mg OMP per 2 kg, 3 hr, average, read-out: serum concentration, average",413 ng/mL
same,concentration at 3 h,"[1]; rabbit, serum, po, oral, 20 mg OMP per 2 kg, 3 hr, individual animals, read-out: serum concentration",425 ng/mL
same,concentration at 4 h,"[1]; rabbit, serum, po, oral, 20 mg OMP per 2 kg, 4 hr, average, read-out: serum concentration, average",477 ng/mL
same,concentration at 4 h,"[1]; rabbit, serum, po, oral, 20 mg OMP per 2 kg, 4 hr, individual animals, read-out: serum concentration",410 ng/mL
same,concentration at 5 h,"[1]; rabbit, serum, po, oral, 20 mg OMP per 2 kg, 5 hr, average, read-out: serum concentration, average",550 ng/mL
same,concentration at 5 h,"[1]; rabbit, serum, po, oral, 20 mg OMP per 2 kg, 5 hr, individual animals, read-out: serum concentration",447 ng/mL
same,concentration at 7 h,"[1]; rabbit, serum, po, oral, 20 mg OMP per 2 kg, 7 hr, average, read-out: serum concentration, average",457 ng/mL
same,concentration at 7 h,"[1]; rabbit, serum, po, oral, 20 mg OMP per 2 kg, 7 hr, individual animals, read-out: serum concentration",521 ng/mL
same,concentration at 9 h,"[1]; rabbit, serum, po, oral, 20 mg OMP per 2 kg, 9 hr, average, read-out: serum concentration, average",357 ng/mL
same,concentration at 9 h,"[1]; rabbit, serum, po, oral, 20 mg OMP per 2 kg, 9 hr, individual animals, read-out: serum concentration",341 ng/mL
same,Tmax,"[1]; rabbit, serum, po, oral, 20 mg OMP per 2 kg, individual animals, read-out: Tmax",4 h
same,half life,[2]; neutral pH,about 14 hrs
same,decomposition,[2]; pH less than 4.0,rapid decomposition
same,stability,[2]; pH more than 7.0,very stable
N=C(N)NCCC[C@H](N)C(=O)O [arginine],stabilizing effect,[3],better stabilizing effect than sodium phosphate
same,stability / contribution to stabilization,[4],stability was more increased
